Laboratory results from article PMC8794255, “Small molecule inhibitor of Igf2bp1 represses Kras and a pro-oncogenic phenotype in cancer cells” (RNA Biology, 2021).

Columns and labels:
[1] = test system: H1299 cells; test: Growth in soft agar, H1299; assay type: cell-based, human; settings: H1299, 20 μM 7773
Description: Cells were grown for 12 hours in 6 well plates prior to incubation with the compound or DMSO for an additional 48 hours, 2000 cells were suspended in 0.3% agar-complete medium and then seeded in triplicates onto a 0.6% agar-complete medium base in a 6 well plate. After one week, the colonies were fed with 0.3% agar-complete medium, and after 2 additional weeks, imaged and quantified.

[2] = test system: ES2 cells; test: qPCR of Igf2bp1 target RNAs in ES2 cells; assay type: cell-based, human
Description: Cells were grown for 12 hours in 12 well plates prior to incubation with the compound at different concentrations for an additional 12 or 24 hours. Total RNA was then extracted using EZ-RNA total RNA isolation kit (Biological Industries) and cDNA prepared from the RNA using the First Strand cDNA Synthesis kit (Quanta bio). Real time PCR was performed with Fast SYBR Green Master Mix (Thermo Fisher Scientific), and cDNA expression analysed with the Bio-Rad CFX Manager 3.1.

[3] = test system: HEK293 cells; test: Cell proliferation assay (Incucyte), HEK293; assay type: cell-based, human; settings: HEK293, up to 20 μM
Description: (§1) ES2, H1299 and HEK293 cells were seeded in a 96 well plate (5X10^3 cells per well) for 24 hours before adding the compound at increasing concentrations. After an additional 24 hours, the plate was incubated in an IncuCyte® S3 Live-Cell Analysis System (Essen BioScience). The wells were filmed for 72 hours, and then analysed for proliferation rate Using IncuCyte® S3 Live-Cell Analysis System (Essen BioScience)

[4] = biological target: T1, G9a (Homo sapiens, UniProt Q96KQ7); test: G9a FP assay (SAH-FITC probe); assay type: biochemical
T1 sequence (Q96KQ7 1-1210): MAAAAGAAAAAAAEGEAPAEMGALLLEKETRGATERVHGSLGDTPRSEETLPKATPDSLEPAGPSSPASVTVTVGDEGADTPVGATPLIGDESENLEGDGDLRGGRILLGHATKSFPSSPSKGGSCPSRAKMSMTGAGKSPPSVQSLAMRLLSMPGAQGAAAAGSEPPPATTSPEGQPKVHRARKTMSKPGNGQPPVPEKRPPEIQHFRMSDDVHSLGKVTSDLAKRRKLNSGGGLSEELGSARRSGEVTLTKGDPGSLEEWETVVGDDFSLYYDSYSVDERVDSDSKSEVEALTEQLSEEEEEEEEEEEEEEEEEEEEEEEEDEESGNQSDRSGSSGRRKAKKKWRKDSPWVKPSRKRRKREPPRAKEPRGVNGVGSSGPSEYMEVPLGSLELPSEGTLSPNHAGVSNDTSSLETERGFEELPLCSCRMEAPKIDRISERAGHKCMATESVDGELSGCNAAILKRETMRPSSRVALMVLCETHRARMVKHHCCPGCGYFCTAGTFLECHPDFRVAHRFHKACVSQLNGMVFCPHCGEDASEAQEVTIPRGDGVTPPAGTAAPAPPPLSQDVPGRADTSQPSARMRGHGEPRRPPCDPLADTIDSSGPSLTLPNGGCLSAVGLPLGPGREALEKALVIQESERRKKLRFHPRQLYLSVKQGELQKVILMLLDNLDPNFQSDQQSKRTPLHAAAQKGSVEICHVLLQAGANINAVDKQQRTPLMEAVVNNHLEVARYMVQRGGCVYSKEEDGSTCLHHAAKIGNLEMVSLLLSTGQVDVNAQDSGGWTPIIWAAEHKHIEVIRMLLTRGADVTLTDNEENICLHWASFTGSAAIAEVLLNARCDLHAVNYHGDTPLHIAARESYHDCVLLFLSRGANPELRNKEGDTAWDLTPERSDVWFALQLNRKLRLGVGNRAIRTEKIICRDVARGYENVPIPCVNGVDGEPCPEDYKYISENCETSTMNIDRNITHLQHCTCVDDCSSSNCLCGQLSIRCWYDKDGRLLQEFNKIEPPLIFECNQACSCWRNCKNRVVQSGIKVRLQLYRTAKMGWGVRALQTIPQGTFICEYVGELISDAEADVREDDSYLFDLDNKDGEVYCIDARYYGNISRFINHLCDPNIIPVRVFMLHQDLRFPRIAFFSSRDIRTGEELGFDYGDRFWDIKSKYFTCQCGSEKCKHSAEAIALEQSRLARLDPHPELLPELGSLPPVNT
Description: For the small-molecule screen, compounds were obtained from the collection maintained at the Grand Israel National Center for Personalized Medicine, consisting of molecules purchased from commercial vendors. Labelled RNA (10 nM) was incubated with recombinant Igf2bp1 protein (400 nM) in FAM-RNA buffer (10 mM Tris pH 8.0, 75 mM KCl, 0.5 mM EDTA, 1 mM DTT, 0.0188 U/μL RNAsin, 0.0005 μg/mL heparin, 0.0001 μg/μL tRNA, 0.01% Triton X-100, 3 mM MgCl2, 0.05% IGEPAL) at room temperature for 15 min. 7 μL of this reaction mix was aliquoted with GNF WDII (USA) into wells of 1536 well plates, with a final concentration of 20 μM compound or DMSO. The plates were spun down and read in a BMG Pherastar FS (Germany) plate reader, in FP mode with a 485/520/520 polarization filter, calibrated to 35 mP for free fluorescein with similar total intensity as experimental samples. […]

[5] = test system: Kras protein in H1299 cells; test: Western blot of Kras protein in H1299 cells; assay type: cell-based, human; settings: H1299, 10 and 20 μM 7773, 48 hours
Description: Western blots were performed as described. For fluorescent westerns, cell lysates were prepared with phosphatase inhibitors (β-Glycerophosphate and Sodium orthovanadate) and a protease inhibitor (cOmplete™, Mini Protease Inhibitor Cocktail, Roche 04693124001), membranes were read using a Li-Core Odyssey laser scanner, and results analysed using Image Studio Lite software.
The following primary antibodies were used: mouse anti-total ERK (p44/42 MAPK (Erk1/2) L34 F12 Cell Signalling 4696s), mouse anti-Kras (CPTC-KRAS4B-2, DSHB) rabbit anti-dpERK, (p44/42 MAPK, Cell Signalling 4370), rabbit anti-alpha/beta tubulin (Cell Signalling 2148), goat anti-rabbit IgG-HRP (Jackson), goat anti-mouse IgG-HRP (Jackson). Secondary antibodies for fluorescent westerns: donkey anti-mouse 800 (Rockland 610–732-124), goat anti-rabbit 680 (Molecular Probes A21076).

[6] = test system: ES2 cells; test: Cell proliferation assay (Incucyte), ES2; assay type: cell-based, human; settings: ES2, up to 20 μM
Description: as §1

`O=C(c1ccc(Cn2cnnn2)cc1)N1CCCC(Nc2ccc3c(c2)OCO3)C1` (stereo not drawn) [compound 7773] was tested, and the “Ability to form colonies in soft agar” value [1] was “dramatically inhibited”, the “Steady state level of CD44 RNA” value ([2]; ES2, 20 μM 7773, 12 and 24 hours) was “strongly reduced after 12 hours, but appeared to recover after 24 hours” and the “Steady state levels of CD44, Kras, cMyc and SRF RNA” value ([2]; ES2, 20 μM 7773, 12 hours) was “all of the assayed RNAs were reduced”. The “Steady state levels of CD44, Kras, cMyc and SRF RNA” value ([2]; ES2, 20 μM 7773, 24 hours) was 3 of the 4 RNAs showing similar or even enhanced reduction, the “Levels of control RNAs that are not targets of Igf2bp1” value ([2]; ES2, 24 hours) was “not significantly affected” and the Cell proliferation [3] was “remarkably unaffected”. The “Effect on G9a catalysing methylation of a peptide” value [4] was “almost no effect”, the Kras protein level [5] was “dose-dependent reduction” and the Cell proliferation [6] was “remarkably unaffected”.
